According to ChEMBL document CHEMBL3232982, “Cytotoxic properties of D-gluco-, D-galacto- and D-manno-configured 2-amino-2-deoxy-glycerolipids against epithelial cancer cell lines and BT-474 breast cancer stem cells” (2014):
Activity calls are given as the source filed them. The calls are words filed in the database; no cut-off is given here.

Experiments:
BT-549 = experiment: Cytotoxicity against human BT549 cells assessed as reduction cell viability after 48 hrs by MTS assay; assay type: functional; details: BT-549, 48 h
BT-474 [1] = experiment: Cytotoxicity against human BT474 cells assessed as reduction cell viability after 48 hrs by MTS assay; assay type: functional; details: BT-474, 48 h
PC-3 = experiment: Cytotoxicity against human PC3 cells assessed as reduction cell viability after 48 hrs by MTS assay; assay type: functional; details: PC-3, 48 h
[2] = Cytotoxicity against human JIMT1 cells assessed as reduction cell viability after 48 hrs by MTS assay; assay type: functional; details: JIMT-1, 48 h
[3] = Cytotoxicity against human MIAPaCa2 cells assessed as reduction cell viability after 48 hrs by MTS assay; assay type: functional; details: MIA PaCa-2, 48 h
DU-145 = experiment: Cytotoxicity against human DU145 cells assessed as reduction cell viability after 48 hrs by MTS assay; assay type: functional; details: DU-145, 48 h
BT-474 [4] = experiment: Cytotoxicity against human BT474 cells assessed as inhibition of spheroids formation at 10 to 20 uM after 6 days by phase contrast microscopy relative to untreated control; assay type: functional, cell-based
BT-474 [5] = experiment: Cytotoxicity against tumorspheres of human BT474 cells assessed as disintegration of tumorspheres at 5 to 20 uM after 6 days by phase contrast microscopy relative to untreated control; assay type: functional, cell-based
BT-474 [6] = experiment: Cytotoxicity against tumorspheres of human BT474 cells assessed as inhibition of cell viability at 10 to 20 uM after 6 days by MTS assay relative to untreated control; assay type: functional, cell-based
BT-474 [7] = experiment: Cytotoxicity against human BT474 cells assessed as inhibition of cell viability at 10 to 20 uM after 6 days by MTS assay relative to untreated control; assay type: functional, cell-based
BT-474 [8] = experiment: Cytotoxicity against tumorspheres of human BT474 cells assessed as inhibition of cell viability at 20 uM after 6 days by MTS assay relative to untreated control; assay type: functional; details: BT-474, 144 h
BT-474 [9] = experiment: Cytotoxicity against human BT474 cells assessed as cell viability at 20 uM after 6 days by MTS assay relative to untreated control; assay type: functional; details: BT-474, 144 h, read-out: Activity
BT-474 [10] = experiment: Cytotoxicity against tumorspheres of human BT474 cells assessed as cell viability at 30 uM after 6 days by MTS assay relative to untreated control; assay type: functional; details: BT-474, 144 h, read-out: Activity
BT-474 [11] = experiment: Cytotoxicity against human BT474 cells assessed as formation of spheroids with jagged rough edges at 10 to 20 uM after 6 days by phase contrast microscopy relative to untreated control; assay type: functional, cell-based

Compound	CC50 (BT-549)	CC50 (BT-474 [1])	CC50 (PC-3)	CC50 [2]	CC50 [3]	CC50 (DU-145)	inhibition (BT-474 [4])	Activity (BT-474 [5])	inhibition (BT-474 [6])	inhibition (BT-474 [7])	inhibition at 20 µM (BT-474 [8])	viability at 20 µM (BT-474 [9])	viability at 30 µM (BT-474 [10])	Activity (BT-474 [11])
CCCCCCCCCCCCCCCCOCC(CS[C@H]1O[C@H](CO)[C@H](O)[C@H](O)[C@H]1N)OC (some centres undefined)	18.3 µM	24.4 µM	15 µM	19.1 µM	18.8 µM	17.2 µM	–	–	–	–	–	–	–	–
CCCCCCCCCCCCCCCCOCC(CO[C@H]1O[C@H](CO)[C@@H](O)[C@H](O)[C@@H]1N)OC (some centres undefined)	> 30 µM	> 30 µM	> 30 µM	> 30 µM	> 30 µM	> 30 µM	–	–	–	–	–	–	–	–
CCCCCCCCCCCCCCCCOCC(CO[C@H]1O[C@H](CO)[C@H](O)[C@H](O)[C@H]1N)OC (some centres undefined)	6.3 µM	6.2 µM	8 µM	4.5 µM	4.4 µM	4.7 µM	Active	Active	Active	Active	–	–	–	–
CCCCCCCCCCCCCCCCOCC(CS[C@@H]1O[C@H](CO)[C@H](O)[C@H](O)[C@H]1N)OC (some centres undefined)	22.2 µM	> 30 µM	24.3 µM	15.5 µM	20.2 µM	18.8 µM	–	–	–	–	–	–	–	–
CCCCCCCCCCCCCCN [TETRADECYLAMINE]	21.7 µM	27.1 µM	24.6 µM	24.8 µM	18.2 µM	16.8 µM	–	–	–	–	–	–	–	–
CCCCCCCCCCCCCCCCOCC(CO[C@@H]1O[C@H](CO)[C@@H](O)[C@H](O)[C@H]1N)OC (some centres undefined)	13 µM	8 µM	13.5 µM	9 µM	10 µM	10 µM	Active	Active	–	Active	–	–	–	–
CCCCCCCCCCCCCCCCOCC(CO[C@@H]1O[C@H](CO)[C@H](O)[C@H](O)[C@H]1N)OC (some centres undefined)	27.6 µM	> 30 µM	> 30 µM	24.8 µM	25.8 µM	19.5 µM	–	–	–	–	–	–	–	–
CCCCCCCCCCCCCCCCCCOCC(COP(=O)([O-])OCC[N+](C)(C)C)OC (centres undefined) [EDELFOSINE]	–	–	–	–	–	–	–	inactive	–	–	30%	55%	45%	Active
CCCCCCCCCCCCCCCCOCC(CO[C@H]1O[C@H](CO)[C@@H](O)[C@H](O)[C@H]1N)OC (some centres undefined)	7 µM	6.2 µM	10.5 µM	6 µM	7 µM	7 µM	Active	Active	Active	Active	–	–	–	–
